Laboratory results: patent US10087165B2, “Fluoroquinolones and use thereof to treat bacterial infections” (UNIVERSITÉ PIERRE ET MARIE CURIE—PARIS 6 (UPMC), priority 2014, dated 2018)
Values after ≈ are worked out from the molar mass of the structure shown. Where two headings read alike, the source gives them in different places.

Legend:
[1] = test system: M. tuberculosis H37Rv GyrA A90V; assay type: cell-based
[2] = test system: M. tuberculosis H37Rv GyrA D94G; assay type: cell-based
[3] = test system: multidrug-resistant M. tuberculosis clinical strain KC1503006247; experiment: microbe, parasite or virus in culture; assay type: cell-based; settings: Mycobacterium tuberculosis; MDR clinical strain; Table 3
[4] = test system: multidrug-resistant M. tuberculosis clinical strain XCC1503082245; experiment: microbe, parasite or virus in culture; assay type: cell-based; settings: Mycobacterium tuberculosis; MDR clinical strain; Table 3
[5] = test system: M. tuberculosis H37Rv GyrB D500N; assay type: cell-based
[6] = test system: multidrug-resistant M. tuberculosis clinical strain GV1503014223; experiment: microbe, parasite or virus in culture; assay type: cell-based; settings: Mycobacterium tuberculosis; MDR clinical strain; Table 3
[7] = test system: M. tuberculosis H37Rv GyrA A90V; settings: Table 2, published previously (Poissy et al. 2010); cited from earlier work
[8] = test system: M. tuberculosis H37Rv GyrA D94G; settings: Table 2, published previously (Poissy et al. 2010); cited from earlier work
[9] = test system: quinolone-resistant M. tuberculosis strains (GyrB D500N, GyrA D94G and GyrA A90V strains); assay type: cell-based

| Compound | MIC (M. tuberculosis) A90V [1] [µM] | MIC (M. tuberculosis) D94G [2] [µM] | MIC [3] [µM] | MIC M. tuberculosis H37Rv GyrA A90V [1] [µM] | MIC M. tuberculosis H37Rv GyrA D94G [2] [µM] | MIC [4] [µM] | MIC M. tuberculosis H37Rv GyrB D500N [5] [µM] | MIC [6] [µM] | MIC (M. tuberculosis) A90V [7] [µM] | MIC (M. tuberculosis) D94G [8] [µM] | antibacterial activity against quinolone-resistant M. tuberculosis strains (in words) [9] |
| --- | --- | --- | --- | --- | --- | --- | --- | --- | --- | --- | --- |
| O=C(O)c1cn(C2CC2)c2cc(N3CCNCC3)c(F)cc2c1=O [Ciprofloxacin, ciprofloxacin, reference compound] | ≥24 | ≥24 | – | – | – | – | – | – | – | – | – |
| CCCCCCCN1CCN(c2c(F)cc3c(=O)c(C(=O)O)cn(C4CC4)c3c2OC)CC1 [Compound 15, 1-cyclopropyl-6-fluoro-7-(4-heptylpiperazin-1-yl)-8-methoxy-4-oxo-1,4-dihydroquinoline-3-carboxylic acid] | – | – | 1 (≈ 0.46 µg/mL) | 2.2 (≈ 1.01 µg/mL) | 0.5 (≈ 0.23 µg/mL) | 1 (≈ 0.46 µg/mL) | 2.2 (≈ 1.01 µg/mL) | 1 (≈ 0.46 µg/mL) | – | – | – |
| CCCCCCCCCN1CCN(c2c(F)cc3c(=O)c(C(=O)O)cn(C4CC4)c3c2OC)CC1 [Compound 17, 1-cyclopropyl-6-fluoro-8-methoxy-7-(4-nonylpiperazin-1-yl)-4-oxo-1,4-dihydroquinoline-3-carboxylic acid] | – | – | < 0.12 | 2 (≈ 0.975 µg/mL) | 2 (≈ 0.975 µg/mL) | 1 (≈ 0.488 µg/mL) | 0.5 (≈ 0.244 µg/mL) | < 0.12 | – | – | – |
| CCCCCCCCCCCN1CCN(c2c(F)cc3c(=O)c(C(=O)O)cn(C4CC4)c3c2OC)CC1 [Compound 19, 1-cyclopropyl-6-fluoro-8-methoxy-4-oxo-7-(4-undecylpiperazin-1-yl)-1,4-dihydroquinoline-3-carboxylic acid] | – | – | 0.12 (≈ 0.0619 µg/mL) | 10 (≈ 5.16 µg/mL) | 10 (≈ 5.16 µg/mL) | 0.5 (≈ 0.258 µg/mL) | 2 (≈ 1.03 µg/mL) | 0.5 (≈ 0.258 µg/mL) | – | – | – |
| CCCCCCCCCCCCN1CCN(c2c(F)cc3c(=O)c(C(=O)O)cn(C4CC4)c3c2OC)CC1 [Compound 20, 1-cyclopropyl-7-(4-dodecylpiperazin-1-yl)-6-fluoro-8-methoxy-4-oxo-1,4-dihydroquinoline-3-carboxylic acid] | – | – | 0.47 (≈ 0.249 µg/mL) | 1.9 (≈ 1.01 µg/mL) | 1.9 (≈ 1.01 µg/mL) | 0.47 (≈ 0.249 µg/mL) | 0.23 (≈ 0.122 µg/mL) | 0.47 (≈ 0.249 µg/mL) | – | – | – |
| COc1c(N2CCNC(C)C2)c(F)cc2c(=O)c(C(=O)O)cn(C3CC3)c12 (stereo not drawn) [Gatifloxacin, gatifloxacin] | – | – | – | – | – | – | – | – | 5.33 (≈ 2 µg/mL) | 2.66 (≈ 0.999 µg/mL) | – |
| CCCCCCCCCCN1CCN(c2cc3c(cc2F)c(=O)c(C(=O)O)cn3C2CC2)CC1 [Quin 9, 1-cyclopropyl-7-(4-decylpiperazin-1-yl)-6-fluoro-4-oxo-1,4-dihydroquinoline-3-carboxylic acid] | ≥4.8 | ≥4.8 | – | – | – | – | – | – | – | – | – |
| CCCCCCCCN1CCN(c2cc3c(cc2F)c(=O)c(C(=O)O)cn3C2CC2)CC1 [Quin 16, 1-cyclopropyl-6-fluoro-7-(4-octylpiperazin-1-yl)-4-oxo-1,4-dihydroquinoline-3-carboxylic acid] | 6.7 (≈ 2.97 µg/mL) | 13.5 (≈ 5.99 µg/mL) | – | – | – | – | – | – | – | – | – |
| CCCCCN1CCN(c2c(F)cc3c(=O)c(C(=O)O)cn(C4CC4)c3c2OC)CC1 [Quin 17, 1-cyclopropyl-6-fluoro-8-methoxy-4-oxo-7-(4-pentylpiperazin-1-yl)-1,4-dihydroquinoline-3-carboxylic acid] | 18.5 (≈ 7.98 µg/mL) | >18.5 | – | – | – | – | – | – | – | – | – |
| CCCCCCCCN1CCN(c2c(F)cc3c(=O)c(C(=O)O)cn(C4CC4)c3c2OC)CC1 [Quin 18, 1-cyclopropyl-6-fluoro-8-methoxy-7-(4-octylpiperazin-1-yl)-4-oxo-1,4-dihydroquinoline-3-carboxylic acid] | 0.5 (≈ 0.237 µg/mL) | 2 (≈ 0.947 µg/mL) | < 0.12 | 2 (≈ 0.947 µg/mL) | 2 (≈ 0.947 µg/mL) | 0.12 (≈ 0.0568 µg/mL) | <0.12 | < 0.12 | – | – | high antibacterial activity |
| CCCCCCCCCCN1CCN(c2c(F)cc3c(=O)c(C(=O)O)cn(C4CC4)c3c2OC)CC1 [Quin 19, 1-cyclopropyl-7-(4-decylpiperazin-1-yl)-6-fluoro-8-methoxy-4-oxo-1,4-dihydroquinoline-3-carboxylic acid] | 0.5 (≈ 0.251 µg/mL) | 1 (≈ 0.502 µg/mL) | < 0.12 | 1 (≈ 0.502 µg/mL) | 2 (≈ 1 µg/mL) | 0.5 (≈ 0.251 µg/mL) | 0.5 (≈ 0.251 µg/mL) | < 0.12 | – | – | high antibacterial activity |
| CCCCCCCCCCCCCCCCN1CCN(c2c(F)cc3c(=O)c(C(=O)O)cn(C4CC4)c3c2OC)CC1 [Quin 20, 1-cyclopropyl-6-fluoro-7-(4-hexadecylpiperazin-1-yl)-8-methoxy-4-oxo-1,4-dihydroquinoline-3-carboxylic acid] | 13.7 (≈ 8.03 µg/mL) | >13.7 | – | – | – | – | – | – | – | – | – |
